Here are results for 31 compounds from paper PMC2766634 (Journal of medicinal chemistry, 2009).

A short description of data set [1]: Cyclic voltammetry in DMSO. It is filed as physicochemical. The settings on record: for E1/2 in DMSO (half-wave potential, 0/−1 reduction), mean ± SE: cyclic voltammetry, 0.10 M NBu4PF6 in DMSO, 25 °C, 100 mV/s; for E1/2 more positive than Mz: in DMSO, relative to Mz.
For data set [2], the system named is G. lamblia (WB/C6, GS/M, 106, and 713). Briefly: Antigiardial growth inhibition. The class given is cell-based, Giardia lamblia. To be noted: for selectivity ratio, IC50/EC50: IC50 in HeLa cells / EC50 in Giardia.
A short description of data set [3]: Cyclic voltammetry in water pH 7.0. It is filed as physicochemical. To be noted: pH 7.0 phosphate buffer, 0.1 M KCl, 25 °C.
In a further data set the test system is HeLa cells. Kind of data set: Cytotoxicity assay. The class given is cell-based, human. To be noted: for IC50: Homo sapiens, HeLa, 48 h, read-out: toxicity in HeLa cells, pIC50 (mean ± SE) (converted).
The test system of the next data set is G. lamblia GS/M. Kind of data set: Murine G. lamblia infection model. It is filed as in vivo, Giardia lamblia in C57BL/6 mice. To be noted: mice, five doses over 3 days.

Where “and” joins values, the source holds several entries; their conditions need not be identical. Identical values can stand only once. Marks after values point to notes of the source that are not given here.

As for `Cc1ccc(CCc2ncc([N+](=O)[O-])n2C)cc1` [compound 41, 1-Methyl-2-[2-(4-methylphenyl)ethyl]-5-nitro-1H-imidazole], in data set [1], the “E1/2 in DMSO (half-wave potential, 0/−1 reduction), mean ± SE” value was −1.592 ± 0.003 V vs Fc.
On to `Cc1ccc(/C=C/c2ncc([N+](=O)[O-])n2C)cc1` [compound 8, 1-Methyl-2-[(E)-2-(4-methylphenyl)vinyl]-5-nitro-1H-imidazole], for which, in data set [2], the “selectivity ratio, IC50/EC50” value is reported as above 617. Also, in data set [1], the “E1/2 in DMSO (half-wave potential, 0/−1 reduction), mean ± SE” value is listed as −1.522 ± 0.003 V vs Fc.
Take `Cn1c([N+](=O)[O-])cnc1CCc1ccccc1` [compound 40, 1-Methyl-5-nitro-2-(2-phenylethyl)-1H-imidazole]: the “E1/2 in DMSO (half-wave potential, 0/−1 reduction), mean ± SE” value in data set [1] is −1.593 ± 0.002 V vs Fc.
With `COc1ccc(/C=C/c2ncc([N+](=O)[O-])n2C)c(OC)c1OC` [compound 22, 1-Methyl-5-nitro-2-[(E)-2-(2,3,4-trimethoxyphenyl)vinyl]-1H-imidazole], the “E1/2 in DMSO (half-wave potential, 0/−1 reduction), mean ± SE” value in data set [1] is reported as −1.584 ± 0.005 V vs Fc. Moreover, the “Ep in water (peak potential), mean ± SE” value in data set [3] is on record as −0.757 ± 0.003 V vs SCE.
As to “2-[(E)-2-(3a,7a-Dihydro-1,3-benzodioxol-5-yl)vinyl]-1-methyl-5-nitro-1H-imidazole [compound 27]”, in data set [2], the “selectivity ratio, IC50/EC50” value is listed as 1,072. Further, the “Activity against G. lamblia pEC50 (mean ± SE)” value in data set [2] (mean ± SE of average pEC50 of four isolates (WB/C6, GS/M, 106, 713)) is reported as 7.16 ± 0.34. In addition, the “toxicity in HeLa cells, pIC50 (mean ± SE)” value with HeLa cells (2 days culture, three separate experiments) is recorded as 4.13 ± 0.10. Moreover, the “E1/2 in DMSO (half-wave potential, 0/−1 reduction), mean ± SE” value in data set [1] is −1.584 ± 0.001 V vs Fc. In data set [3], the “Ep in water (peak potential), mean ± SE” value was −0.778 ± 0.002 V vs SCE.
Turning to `Cc1ccc(C(Br)C(Br)c2ncc([N+](=O)[O-])n2C)cc1` (centres unmarked) [compound 3, reference compound], in data set [2] (relative to Mz), the “increased antigiardial activity over Mz” value turned out to be 40 fold and the “selectivity ratio lower than that of Mz” value is listed as above 10 fold. For the same compound, in the data set on HeLa cells (relative to Mz), the “more toxic than Mz in HeLa” value is on record as above 500 fold. Moreover, the “E1/2 in DMSO (half-wave potential, 0/−1 reduction), mean ± SE” value in data set [1] is reported as −1.489 ^d ± 0.001 V vs Fc.
For `Cn1c([N+](=O)[O-])cnc1/C=C/c1ccc(Cl)cc1` [compound 15, 2-[(E)-2-(4-Chlorophenyl)vinyl]-1-methyl-5-nitro-1H-imidazole], in data set [1], the “E1/2 in DMSO (half-wave potential, 0/−1 reduction), mean ± SE” value is listed as −1.503 ± 0.001 V vs Fc. Moreover, the “Ep in water (peak potential), mean ± SE” value in data set [3] is −0.584 ± 0.001 V vs SCE.
For `Cn1c([N+](=O)[O-])cnc1/C=C/c1cccc(Br)c1` [compound 11, 2-[(E)-2-(3-Bromophenyl)vinyl]-1-methyl-5-nitro-1H-imidazole], the “E1/2 in DMSO (half-wave potential, 0/−1 reduction), mean ± SE” value in data set [1] is −1.497 ± 0.005 V vs Fc.
On the same count and under the same terms, in the case of `Cn1cncc1[N+](=O)[O-]` [1-methyl-5-NI, reference compound] it was −1.557 V vs Fc and −1.557 ± 0.001 V vs Fc; in that of `Cn1c([N+](=O)[O-])cnc1/C=C/c1cccc(Cl)c1` [compound 14, 2-[(E)-2-(3-Chlorophenyl)vinyl]-1-methyl-5-nitro-1H-imidazole], −1.492 ± 0.002 V vs Fc.
For the compound `COc1cccc(/C=C/c2ncc([N+](=O)[O-])n2C)c1` [compound 20, 2-[(E)-2-(3-Methoxyphenyl)vinyl]-1-methyl-5-nitro-1H-imidazole], in data set [1], the “E1/2 in DMSO (half-wave potential, 0/−1 reduction), mean ± SE” value was −1.580 ± 0.007 V vs Fc. In addition, in data set [3], the “Ep in water (peak potential), mean ± SE” value is listed as −0.763 ± 0.001 V vs SCE.
On to `Cn1c([N+](=O)[O-])cnc1/C=C/c1cccc(I)c1` [compound 18, 2-[(E)-2-(3-Iodophenyl)vinyl]-1-methyl-5-nitro-1H-imidazole], for which the IC50 with HeLa cells is 31.6 µM. In addition, in data set [1], the “E1/2 in DMSO (half-wave potential, 0/−1 reduction), mean ± SE” value is reported as −1.494 ± 0.004 V vs Fc.
For `Cc1ccc(C(O)C(O)c2ncc([N+](=O)[O-])n2C)cc1` (centres unmarked) [compound 34, 1-(1-Methyl-5-nitro-1H-imidazol-2-yl)-2-(4-methylphenyl)-ethane-1,2-diol], in data set [1], the “E1/2 in DMSO (half-wave potential, 0/−1 reduction), mean ± SE” value is on record as −1.557 ± 0.001 V vs Fc.
On the same count and under the same terms, with `Cn1c([N+](=O)[O-])cnc1/C=C/c1ccc(OC(F)(F)F)cc1` [compound 21, 1-Methyl-5-nitro-2-{(E)-2-[4-(trifluoromethoxy)phenyl]vinyl}-1H-imidazole] the figure was −1.487 ± 0.001 V vs Fc.
On to `CC(=O)OC(c1ccc(Br)cc1)C(OC(C)=O)c1ncc([N+](=O)[O-])n1C` (centres unmarked) [compound 37, 1-(1-Methyl-5-nitro-1H-imidazol-2-yl)-2-(4-bromophenyl)-ethane-1,2-diyl Diacetate], for which the IC50 in the data set on HeLa cells is 97.7 µM.
`Cn1c([N+](=O)[O-])cnc1/C=C/c1ccccc1Br` [compound 10, 2-[(E)-2-(2-Bromophenyl)vinyl]-1-methyl-5-nitro-1H-imidazole]: in data set [1], the “E1/2 in DMSO (half-wave potential, 0/−1 reduction), mean ± SE” value is recorded as −1.481 ± 0.001 V vs Fc.
As for `Cn1c([N+](=O)[O-])cnc1CCc1ccc(Br)cc1` [compound 42, 2-[2-(4-Bromophenyl)ethyl]-1-methyl-5-nitro-1H-imidazole], the IC50 in the data set with HeLa cells is 97.7 µM. Further, the “E1/2 in DMSO (half-wave potential, 0/−1 reduction), mean ± SE” value in data set [1] is listed as −1.592 ± 0.003 V vs Fc.
`Cc1ccccc1/C=C/c1ncc([N+](=O)[O-])n1C` [compound 6, 1-Methyl-2-[(E)-2-(2-methylphenyl)vinyl]-5-nitro-1H-imidazole]: the IC50 in the data set with HeLa cells is 93.3 µM. The “E1/2 in DMSO (half-wave potential, 0/−1 reduction), mean ± SE” value in data set [1] is −1.512 ± 0.001 V vs Fc. The “Ep in water (peak potential), mean ± SE” value in data set [3] was −0.621 ± 0.001 V vs SCE.
Regarding `Cn1c([N+](=O)[O-])cnc1C(O)C(O)c1ccc(Br)cc1` (centres unmarked) [compound 35, 1-(4-Bromophenyl)-2-(1-methyl-5-nitro-1H-imidazol-2-yl)-ethane-1,2-diol], the “E1/2 in DMSO (half-wave potential, 0/−1 reduction), mean ± SE” value in data set [1] was −1.544 ± 0.001 V vs Fc.
As to `Cc1ncc([N+](=O)[O-])n1CCO` [Mz, metronidazole, reference compound], in the data set with G. lamblia GS/M (2 mg/kg oral gavage), the “effect on infection (trophozoites in small intestine) at 2 mg/kg” value is “no significant effect”. Moreover, the “effect on infection (trophozoites in small intestine) at 10 mg/kg” value in the data set with G. lamblia GS/M (10 mg/kg oral gavage) is “not parasite eradication”.
As for `Cn1c([N+](=O)[O-])cnc1/C=C/c1cccc2ccccc12` [compound 25, 1-Methyl-2-[(E)-2-(1-naphthyl)vinyl]-5-nitro-1H-imidazole], the “selectivity ratio, IC50/EC50” value in data set [2] is 1,000. Besides, the “E1/2 in DMSO (half-wave potential, 0/−1 reduction), mean ± SE” value in data set [1] is reported as −1.502 ± 0.004 V vs Fc.
Regarding `Cc1cc(C)c(/C=C/c2ncc([N+](=O)[O-])n2C)c(C)c1` [compound 9, 1-Methyl-2-[(E)-2-(2,4,6-trimethylphenyl)vinyl]-5-nitro-1H-imidazole], in the data set with HeLa cells, the IC50 was 11 µM. Also, in data set [1], the “E1/2 in DMSO (half-wave potential, 0/−1 reduction), mean ± SE” value is recorded as −1.529 ± 0.001 V vs Fc and the “E1/2 more positive than Mz” value was 30–50 mV.
Turning to `Cn1c([N+](=O)[O-])cnc1/C=C/c1ccccc1Cl` [compound 13, 2-[(E)-2-(2-Chlorophenyl)vinyl]-1-methyl-5-nitro-1H-imidazole], the “E1/2 in DMSO (half-wave potential, 0/−1 reduction), mean ± SE” value in data set [1] is on record as −1.486 ± 0.004 V vs Fc.
Consider `Cn1c([N+](=O)[O-])cnc1/C=C/c1cccs1` [compound 30, 1-Methyl-5-nitro-2-[(E)-2-(2-thienyl)vinyl]-1H-imidazole], for which the “selectivity ratio, IC50/EC50” value in data set [2] was 1,122. For the same compound, the “E1/2 in DMSO (half-wave potential, 0/−1 reduction), mean ± SE” value in data set [1] was −1.528 ± 0.003 V vs Fc. Moreover, the “Ep in water (peak potential), mean ± SE” value in data set [3] is −0.658 ± 0.001 V vs SCE.
On to `Cn1c([N+](=O)[O-])cnc1/C=C/c1ccc2ccccc2c1` [compound 26, 1-Methyl-2-[(E)-2-(2-naphthyl)vinyl]-5-nitro-1H-imidazole], for which, in data set [2], the “selectivity ratio, IC50/EC50” value was 1,622. Moreover, the IC50 with HeLa cells is 97.7 µM. Besides, in data set [1], the “E1/2 in DMSO (half-wave potential, 0/−1 reduction), mean ± SE” value is on record as −1.509 ± 0.001 V vs Fc.
With `Cc1cccc(/C=C/c2ncc([N+](=O)[O-])n2C)c1` [compound 7, 1-Methyl-2-[(E)-2-(3-methylphenyl)vinyl]-5-nitro-1H-imidazole], in data set [1], the “E1/2 in DMSO (half-wave potential, 0/−1 reduction), mean ± SE” value is given as −1.516 ± 0.001 V vs Fc. Also, the “Ep in water (peak potential), mean ± SE” value in data set [3] is −0.635 ± 0.003 V vs SCE.
`Cn1c([N+](=O)[O-])cnc1/C=C/c1ccc(Cl)cc1Cl` [compound 16, 2-[(E)-2-(2,4-Dichlorophenyl)vinyl]-1-methyl-5-nitro-1H-imidazole]: in data set [1], the “E1/2 in DMSO (half-wave potential, 0/−1 reduction), mean ± SE” value is −1.469 ± 0.002 V vs Fc and the “E1/2 more positive than Mz” value was ~ 90 mV.
Consider `Cn1c([N+](=O)[O-])cnc1/C=C/c1ccsc1` [compound 31, 1-Methyl-5-nitro-2-[(E)-2-(3-thienyl)vinyl]-1H-imidazole], for which, in data set [2], the “selectivity ratio, IC50/EC50” value is >1,023. For the same compound, in data set [1], the “E1/2 in DMSO (half-wave potential, 0/−1 reduction), mean ± SE” value is −1.508 ± 0.002 V vs Fc. For the same compound, the “Ep in water (peak potential), mean ± SE” value in data set [3] was −0.595 ± 0.001 V vs SCE.
Take `Cn1c([N+](=O)[O-])cnc1/C=C/c1ccccc1-c1ccccc1` [compound 24, 2-[(E)-2-Biphenyl-2-ylvinyl]-1-methyl-5-nitro-1H-imidazole]: in data set [1], the “E1/2 in DMSO (half-wave potential, 0/−1 reduction), mean ± SE” value is listed as −1.512 ± 0.001 V vs Fc.
Regarding `CCOC(OCC)c1ccc(/C=C/c2ncc([N+](=O)[O-])n2C)cc1` [compound 23, 2-{(E)-2-[4-(Diethoxymethyl)phenyl]vinyl}-1-methyl-5-nitro-1H-imidazole], the IC50 with HeLa cells is 97.7 µM. In data set [1], the “E1/2 in DMSO (half-wave potential, 0/−1 reduction), mean ± SE” value is on record as −1.518 ± 0.003 V vs Fc.
On to `Cn1c([N+](=O)[O-])cnc1C(Br)C(Br)c1ccc(Br)cc1` (centres unmarked) [compound 33, 2-[1,2-Dibromo-2-(4-bromophenyl)ethyl]-1-methyl-5-nitro-1H-imidazole], for which the “E1/2 in DMSO (half-wave potential, 0/−1 reduction), mean ± SE” value in data set [1] was −1.493 ^d ± 0.004 V vs Fc.
